Measurements reported in ChEMBL document CHEMBL1201862, “PubChem BioAssay data set” (2004).
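Interpolation was linear, between the two tested concentrations surrounding the appropriate level; five concentrations were tested over 48 hours in 96-well plates. Abbreviation: GI50, concentration required for 50% inhibition of growth.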 Calls of active or inactive are those of the source. Cut-off read from the data, not from the text of the source: active = GI50 up to about 1.1 µM and inactive = higher.

What was measured:
Experiment in all cases: DTP human tumour cell line panel, 48 h
U-251 = tested on: U-251
TK-10 = tested on: TK-10
SNB-78 = tested on: SNB-78
A549 = tested on: A549
CCRF-CEM = tested on: CCRF-CEM
SK-MEL-5 = tested on: SK-MEL-5
EKVX = tested on: EKVX
HOP-62 = tested on: HOP-62
ACHN = tested on: ACHN
M14 = tested on: M14
SN12C = tested on: SN12C
UACC-257 = tested on: UACC-257
HCT-15 = tested on: HCT-15
A498 = tested on: A498
RPMI-8226 = tested on: RPMI-8226

SMILES	GI50 (U-251)	GI50 (TK-10)	GI50 (SNB-78)	GI50 (A549)	GI50 (CCRF-CEM)	GI50 (SK-MEL-5)	GI50 (EKVX)	GI50 (HOP-62)	GI50 (ACHN)	GI50 (M14)	GI50 (SN12C)	GI50 (UACC-257)	GI50 (HCT-15) [µM]	GI50 (A498)	GI50 (RPMI-8226)
O=c1c2cccnc2ncn1CCCN1CCCCC1	> 100 µM (inactive)	> 100 µM (inactive)	> 100 µM (inactive)	> 100 µM (inactive)	> 100 µM (inactive)	> 100 µM (inactive)	> 100 µM (inactive)	> 100 µM (inactive)	> 100 µM (inactive)	> 100 µM (inactive)	> 100 µM (inactive)	–	–	–	–
COc1ccc(NN=C2C(=O)CCC2=O)cc1	> 100 µM (inactive)	> 100 µM (inactive)	> 100 µM (inactive)	18.3 µM (inactive)	> 100 µM (inactive)	48.2 µM (inactive)	> 100 µM (inactive)	50 µM (inactive)	74.3 µM (inactive)	57.3 µM (inactive)	> 100 µM (inactive)	52.4 µM (inactive)	> 100	55 µM (inactive)	–
COC(OC)c1cc2c(cc1C=O)OCO2	> 100 µM (inactive)	> 100 µM (inactive)	> 100 µM (inactive)	> 100 µM (inactive)	> 100 µM (inactive)	30.6 µM (inactive)	> 100 µM (inactive)	> 100 µM (inactive)	> 100 µM (inactive)	48.9 µM (inactive)	> 100 µM (inactive)	> 100 µM (inactive)	–	–	–
c1ccc(-c2ccnc3c2ccc2c(-c4ccccc4)ccnc23)cc1	1.17 µM (inactive)	0.279 µM (active)	5.05 µM (inactive)	0.875 µM (active)	0.465 µM (active)	0.736 µM (active)	0.664 µM (active)	1.89 µM (inactive)	1.11 µM (active)	3.37 µM (inactive)	2.26 µM (inactive)	2.28 µM (inactive)	1.06	2.53 µM (inactive)	–
COc1ccc(C2C(Cl)C(=O)N2NC(=O)Cc2ccccc2)cc1OC (stereo unspecified)	> 100 µM (inactive)	> 100 µM (inactive)	> 100 µM (inactive)	> 100 µM (inactive)	> 100 µM (inactive)	> 100 µM (inactive)	> 100 µM (inactive)	> 100 µM (inactive)	> 100 µM (inactive)	> 100 µM (inactive)	> 100 µM (inactive)	> 100 µM (inactive)	> 100	–	> 100 µM (inactive)
COC(=O)C1=CC(=O)[C@@H]2CCCC[C@H]12	> 100 µM (inactive)	> 100 µM (inactive)	> 100 µM (inactive)	> 100 µM (inactive)	> 100 µM (inactive)	–	–	> 100 µM (inactive)	> 100 µM (inactive)	> 100 µM (inactive)	> 100 µM (inactive)	> 100 µM (inactive)	> 100	–	> 100 µM (inactive)
O=C1C(=O)N(c2ccc(Cl)c(Cl)c2)C(=O)C(=O)C1c1nc2ccccc2o1	33.3 µM (inactive)	> 100 µM (inactive)	66.4 µM (inactive)	> 100 µM (inactive)	–	–	–	> 100 µM (inactive)	> 100 µM (inactive)	80.4 µM (inactive)	94.6 µM (inactive)	98.4 µM (inactive)	50.2	–	24.7 µM (inactive)
CCC(C)n1c(C)nc2c1C(=O)c1ccccc1C2=O (stereo unspecified)	44.8 µM (inactive)	94.6 µM (inactive)	> 100 µM (inactive)	33.9 µM (inactive)	37.2 µM (inactive)	26.9 µM (inactive)	96.8 µM (inactive)	58.2 µM (inactive)	46.9 µM (inactive)	> 100 µM (inactive)	57.8 µM (inactive)	27.9 µM (inactive)	27.2	–	–
